From paper PMC13005684 (Advanced Healthcare Materials, 2025)
Where a name gives a salt, the structure may show the parent alone.

Experiments:
MDA-MB-231 cells [1] = assay: cells; assay type: cell-based; conditions: Homo sapiens, MDA-MB-231, 72 h, read-out: 3-day IC50
MDA-MB-231 cells [2] = assay type: cell-based, human

Row | SMILES | IC50 (MDA-MB-231 cells [1]) | cell death pathway triggered (MDA-MB-231 cells [2])
1 | COc1cccc2c1C(=O)c1c(O)c3c(c(O)c1C2=O)C[C@@](O)(C(=O)CO)C[C@@H]3O[C@H]1C[C@H](N)[C@H](O)[C@H](C)O1 [doxorubicin, doxorubicin hydrochloride] | ~510 nM | necrotic cell death pathway
2 | COC1=C2C[C@@H](C)C[C@H](OC)[C@H](O)[C@@H](C)/C=C(\C)[C@H](OC(N)=O)[C@@H](OC)/C=C\C=C(/C)C(=O)NC(=CC1=O)C2=O [geldanamycin, Geldanamycin] | 3700 nM | apoptosis
